Data set [1] can be described thus: DPPH radical scavenging assay. Conditions: 30 min at 25 °C; '-' = did not capture the radical. Here is the method:
Antioxidant activity of the tested compounds was measured in terms of hydrogen donating or radical scavenging ability using the stable radical 2,2′-diphenyl-1-picrylhydrazyl (DPPH). The 50 μL of various concentrations of tested solutions (5 μM–1000 μM) were placed in a cuvette, 1 mL of ethanolic solution of DPPH was added, and the final DPPH concentration was kept constant (c = 8 × 10^−4 M). The mixture was incubated for 30 min at 25 °C. […] All determinations were performed in triplicate. The concentrations of tested compounds were expressed as final concentrations. Inhibition of DPPH expressed in percentage was calculated according to the equation:(2) Inhibition (%)=AC(0)−AC(t)/AC(0)·100 where AC(0) is the absorbance of the control at t = 0 min, and AC(t) is the absorbance of the antioxidant at t = 30 min. Data were used to calculate the IC50 value by a nonlinear fit of compound concentration values vs. inhibition percentage.
Background: DPPH is a stable violet radical that fades when it is reduced.

In data set [2] the target is butyrylcholinesterase (BChE) (Equus caballus, UniProt P81908). Briefly: biochemical. Type of data set: biochemical. As to conditions: mean ± standard deviation, triplicate.
Data set [3] concerns the target Acetylcholinesterase (AChE) (Electrophorus electricus, UniProt O42275). As to the kind of experiment: biochemical. As to conditions: mean ± standard deviation, triplicate; '-' = no inhibitory activity. It counts as biochemical.
A short description of data set [4]: Protonation constants by potentiometric titration with spectrophotometric detection. Type of data set: physicochemical. As to conditions: for Protonation constant lgK1: titration from pH 10, for trans-1 first of two protonation steps. From the text: (§1) The third one in this equilibrium system must be a complex between the previous two species. Detailed fitting studies by application of the PSEQUAD program confirmed the existence of a complex with a 1:1 (FeL^2+) composition. Furthermore, the apparent formation constant of these species (for the reaction Fe^3+ + HL ⇌ FeL^2+ + H^+) and the individual spectrum of the species could be estimated by this procedure. […] The apparent formation constant determined from this spectrum series and that regarding the titration with the ligand was lgK’FeL = 4.75 ± 0.10. Using this apparent formation constant, the molar fractions of the free Fe^3+ and the 1:1 complex could be calculated as functions of the (protonated) ligand concentration (pHL), as shown by the inset of Figure 12a. Since the spectrophotometric titration was carried out in an acidic solution, in order to estimate the formation constant for the Fe^3+ + L^− ⇌ FeL^2+ reaction, the protonation constant of the deprotonated ligand (L^−) was also determined (by potentiometric titration, starting from the fully deprotonated form at pH = 10, Figure 13), lgK1 = 7.81 ± 0.15. The sum of the apparent formation constant and the protonation constant gives the equilibrium constant regarding the reaction above (lgKFeL = 12.56 ± 0.15).
(§2) The protonation and complex formation constants were determined similarly for the other three compounds. The corresponding figures can be found in the Supplementary Materials (Figures S67 and S68 for cis-2, Figures S69 and S70 for cis-4, and Figures S71 and S72 for trans-1). In the case of trans-1, two protonation steps were observed due to the two OH groups. For calculating the formation constant, lgK2 was taken into account, corresponding to the proton in the OH group on the pyranone ring. This can be exchanged by the Fe^3+ ion easier than the other proton in the phenolic moiety.
A 0.01–0.01 M phosphate–borate–acetate buffer solution was used for potentiometric titration. A 50 cm^3 beaker was filled with 25 cm^3 of buffer solution containing the appropriate amount of ligand, and the pH was adjusted to 10.0 by adding 2 M NaOH solution. The pH was determined using a Consort C3010 multi-parameter analyzer (Consort bvba, Turnhout, Belgium) equipped with a combined glass electrode. The solution was circulated with an IKA PA-SF (IKA Labortechnik, Staufen, Germany) peristaltic pump through a Hellma (176.000-QS 10 mm) flow through the cuvette. Titration was carried out with 6 M H2SO4 solution. The spectra were recorded with a Specord S600 spectrophotometer after pH stabilization.

Data set [5] in a line: Fe3+ complex formation constants by spectrophotometric titration (PSEQUAD). Type of data set: physicochemical. As to conditions: for Apparent formation constant lgK'FeL, Fe^3+ + HL ⇌ FeL^2+ + H^+: 1:1 complex; for Formation constant lgKFeL, Fe^3+ + L^− ⇌ FeL^2+: sum of apparent formation constant and protonation constant. How it is done: Since Fe^3+ ions strongly hydrolyze, acidic solutions were applied for the spectrophotometric titrations to determine the complex formation constants. Both types of titrations were carried out: increasing the iron(III) concentration at constant ligand concentration and increasing ligand concentration at constant CFe(III).
as §1, §2
Two titration series were used to determine the stability constants of equilibrium systems containing Fe^3+ and ligand. The iron(III) content was increased at constant ligand content, the ligand concentration was increased at constant Fe(III) content, and the spectral changes were recorded with a Specord S600 spectrophotometer (Analytic Jena GmbH, Jena, Germany) in the 190–900 nm wavelength range. […] The two series were evaluated together using PSEQUAD software in the 210–430 nm range.

For data set [6] the following is noted: previously tested; read-out: DPPH IC50; cited from earlier work.

Like-named read-outs stand apart in the source and are kept apart here. Bounds are passed on as bounds.

Sequence of Acetylcholinesterase (AChE) (O42275 24-633): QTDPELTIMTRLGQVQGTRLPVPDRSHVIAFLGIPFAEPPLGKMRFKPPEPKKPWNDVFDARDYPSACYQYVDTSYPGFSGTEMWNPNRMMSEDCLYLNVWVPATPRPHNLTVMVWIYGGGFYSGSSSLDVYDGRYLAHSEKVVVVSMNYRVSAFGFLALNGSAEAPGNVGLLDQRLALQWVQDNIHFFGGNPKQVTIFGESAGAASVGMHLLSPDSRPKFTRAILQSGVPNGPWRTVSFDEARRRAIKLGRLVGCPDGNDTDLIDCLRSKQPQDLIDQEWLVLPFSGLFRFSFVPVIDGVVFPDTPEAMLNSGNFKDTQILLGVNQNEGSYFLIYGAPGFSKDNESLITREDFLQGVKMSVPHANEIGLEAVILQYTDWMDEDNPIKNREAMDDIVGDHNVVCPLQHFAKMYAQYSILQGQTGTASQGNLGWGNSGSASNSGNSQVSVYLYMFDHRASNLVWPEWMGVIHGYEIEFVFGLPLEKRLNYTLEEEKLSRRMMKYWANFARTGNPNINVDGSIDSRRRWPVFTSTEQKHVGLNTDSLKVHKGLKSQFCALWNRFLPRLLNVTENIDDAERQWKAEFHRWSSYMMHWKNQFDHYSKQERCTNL
Sequence of butyrylcholinesterase (BChE) (P81908 whole entry): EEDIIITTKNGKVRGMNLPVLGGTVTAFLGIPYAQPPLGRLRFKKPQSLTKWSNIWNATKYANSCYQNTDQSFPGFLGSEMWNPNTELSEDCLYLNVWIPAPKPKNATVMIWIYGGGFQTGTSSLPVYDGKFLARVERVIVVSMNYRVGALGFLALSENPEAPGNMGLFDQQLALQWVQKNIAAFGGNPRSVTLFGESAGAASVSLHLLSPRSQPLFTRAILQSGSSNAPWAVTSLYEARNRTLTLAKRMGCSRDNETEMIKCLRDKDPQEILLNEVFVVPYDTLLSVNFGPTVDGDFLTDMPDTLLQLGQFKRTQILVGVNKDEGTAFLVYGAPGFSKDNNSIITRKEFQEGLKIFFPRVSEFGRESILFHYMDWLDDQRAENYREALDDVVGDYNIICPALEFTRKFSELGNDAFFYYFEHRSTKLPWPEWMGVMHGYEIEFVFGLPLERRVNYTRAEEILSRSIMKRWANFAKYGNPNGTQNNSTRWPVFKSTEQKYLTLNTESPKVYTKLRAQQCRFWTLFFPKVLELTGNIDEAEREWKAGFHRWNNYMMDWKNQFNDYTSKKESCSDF

`O=c1cc(/C=C\c2ccccc2C(F)(F)F)occ1O` [cis-2, (Z)-5-hydroxy-2-(2-(trifluoromethyl)styryl)-4H-pyran-4-one]: the IC50 is more than 1000 µM in data set [1], 458 ± 30.2 µM in data set [2] and more than 1000 µM in data set [3]. Moreover, in data set [4], the “Protonation constant lgK1” value amounted to 7.95 ± 0.10. Also, the “Apparent formation constant lgK'FeL, Fe^3+ + HL ⇌ FeL^2+ + H^+” value (from here on “Apparent formation constant lgK'FeL”) in data set [5] (acidic solution) is reported as 4.38 ± 0.20.

For the compound `O=c1cc(/C=C\c2ccc(Cl)cc2Cl)occ1O` [cis-4, (Z)-2-(2,4-dichlorostyryl)-5-hydroxy-4H-pyran-4-one], the IC50 in data set [1] was more than 1000 µM; in data set [2], 638 ± 25.8 µM; in data set [3] it was 1000 ± 10.1 µM. The “Protonation constant lgK1” value in data set [4] stood at 7.99 ± 0.15. For the same compound, in data set [5] (acidic solution), the “Apparent formation constant lgK'FeL” value was determined as 4.16 ± 0.10. Also, the “Formation constant lgKFeL, Fe^3+ + L^− ⇌ FeL^2+” value in data set [5] is 12.15 ± 0.15.

As for `Oc1ccccc1/C=C/c1cccs1` [II], the figures for the IC50 in data set [6], in data set [2] and in data set [3] were 159 µM, 4.6 ± 0.1 µM and 15.7 ± 1 µM, respectively.

As to `O=c1cc(C=Cc2cccs2)occ1O` [compound 7, 5-hydroxy-2-(2-(thiophen-2-yl)vinyl)-4H-pyran-4-one], the “DPPH IC50” value in data set [1] is on record as “completely missed any tested bioactivity”. Also, in data set [2], the “BChE IC50” value is on record as “completely missed any tested bioactivity”. Further, the “AChE IC50” value in data set [3] was “completely missed any tested bioactivity”.

`O=c1cc(/C=C/c2ccsc2)occ1O` [trans-6, (E)-5-hydroxy-2-(2-(thiophen-3-yl)vinyl)-4H-pyran-4-one]: the figures for the 50% inhibitory concentration (IC50) in data set [1], in data set [2] and in data set [3] were more than 1000 µM, 426 ± 41.8 µM and more than 1000 µM, respectively. Also, in data set [4], the “Protonation constant lgK1” value is listed as 7.81 ± 0.15. In data set [5] (acidic solution), the “Apparent formation constant lgK'FeL” value worked out at 4.75 ± 0.10. In addition, the “Formation constant lgKFeL, Fe^3+ + L^− ⇌ FeL^2+” value in data set [5] is given as 12.56 ± 0.15.

As for `O=c1cc(/C=C/c2ccccc2O)occ1O` [trans-1, (E)-5-hydroxy-2-(2-hydroxystyryl)-4H-pyran-4-one], the IC50 was 251 ± 45.6 µM in data set [1], 601 ± 34.5 µM in data set [2] and more than 1000 µM in data set [3]. In addition, the “Protonation constant lgK1” value in data set [4] was 8.9 ± 0.20. The “Protonation constant lgK2” value in data set [4] (trans-1: proton of the OH group on the pyranone ring) came out at 7.25 ± 0.20. Moreover, the “Formation constant lgKFeHL, Fe^3+ + H2L ⇌ FeHL^2+ + H^+” value in data set [5] (acidic solution, footnote a) is 4.38 ± 0.20 ^a. The “Formation constant lgKFeHL, Fe^3+ + HL^− ⇌ FeHL^2+” value in data set [5] (calculated with lgK2, footnote b) is 11.6 ± 0.2 ^b.

In the case of `Oc1ccc(/C=C/c2cccs2)c(O)c1` [III], the IC50 is 26.8 µM in data set [6], 5.3 ± 1.8 µM in data set [2] and 46.6 ± 8.3 µM in data set [3].

The term IC50 denotes the concentration at which inhibition is half-maximal.

The record behind these values is PMC9573353 (Molecules, 2022).
